Measured values taken from PubChem BioAssay AID256 (DTP/NCI, 2004).
Values joined by “and” are separate entries in the source; they are usually repeats but may differ in a detail not shown here. Identical values can stand only once. Inconclusive results and toxic doses are left out.

Tested on: CD2F1 mice, L1210 leukemia ip, survival T/C
Assay: NCI In Vivo Anticancer Drug Screen. Data for tumor model L1210 Leukemia (intraperitoneal) in CD2F1 (CDF1) mice
Settings: higher = longer survival
Method in brief: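 Antitumor effect is scored in animals hosting a serially transplanted tumor. Values compare compound-dosed animals against vehicle-only controls as a simple quotient.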

[1] = endpoint: mean survival time, dose: 100.0 mg/kg/injection, schedule: Q01DX009 (ip), vehicle: saline
[2] = endpoint: mean survival time, dose: 200.0 mg/kg/injection, schedule: Q01DX009 (ip), vehicle: saline
[3] = endpoint: mean survival time, dose: 400.0 mg/kg/injection, schedule: Q01DX009 (ip), vehicle: saline
[4] = endpoint: mean survival time, dose: 50.0 mg/kg/injection, schedule: Q01DX009 (ip), vehicle: saline with Tween-80
[5] = endpoint: mean survival time, dose: 100.0 mg/kg/injection, schedule: Q01DX009 (ip), vehicle: saline with Tween-80
[6] = endpoint: mean survival time, dose: 200.0 mg/kg/injection, schedule: Q01DX009 (ip), vehicle: saline with Tween-80
[7] = endpoint: mean survival time, dose: 100.0 mg/kg/injection, schedule: Q04DX003 (ip), vehicle: saline with Tween-80
[8] = endpoint: mean survival time, dose: 200.0 mg/kg/injection, schedule: Q04DX003 (ip), vehicle: saline with Tween-80
[9] = endpoint: mean survival time, dose: 100.0 mg/kg/injection, schedule: Q01DX001 (ip), vehicle: saline
[10] = endpoint: mean survival time, dose: 200.0 mg/kg/injection, schedule: Q01DX001 (ip), vehicle: saline
[11] = endpoint: mean survival time, dose: 400.0 mg/kg/injection, schedule: Q01DX001 (ip), vehicle: saline
[12] = endpoint: mean survival time, dose: 0.78 mg/kg/injection, schedule: Q01DX009 (ip), vehicle: saline with Tween-80
[13] = endpoint: mean survival time, dose: 400.0 mg/kg/injection, schedule: Q04DX003 (ip), vehicle: saline with Tween-80
[14] = endpoint: mean survival time, dose: 25.0 mg/kg/injection, schedule: Q01DX009 (ip), vehicle: other
[15] = endpoint: mean survival time, dose: 50.0 mg/kg/injection, schedule: Q01DX009 (ip), vehicle: other
[16] = endpoint: mean survival time, dose: 100.0 mg/kg/injection, schedule: Q01DX009 (ip), vehicle: other

Compound: Nc1[nH]c(=S)[nH]c(=O)c1NC(=O)C1CC1
- T/C (endpoint: mean survival time, dose: 100.0 mg/kg/injection, schedule: Q01DX009 (ip), vehicle: saline sonified): 98 % of control
- T/C (endpoint: mean survival time, dose: 200.0 mg/kg/injection, schedule: Q01DX009 (ip), vehicle: saline sonified): 92 % of control
- T/C (endpoint: mean survival time, dose: 400.0 mg/kg/injection, schedule: Q01DX009 (ip), vehicle: saline sonified): 98 % of control

Compound: CCOC(=O)C(C(=O)OCC)n1c(=O)c2c(ncn2C)n(C)c1=O
- T/C (endpoint: mean survival time, dose: 200.0 mg/kg/injection, schedule: Q01DX005 (ip), vehicle: distilled water + Tween-80): 102 % of control
- T/C (endpoint: mean survival time, dose: 400.0 mg/kg/injection, schedule: Q01DX005 (ip), vehicle: distilled water + Tween-80): 101 % of control

Compound: O=C(O)/C=C/C(=O)NCCCCCCNC(=O)/C=C/C(=O)O
- T/C [1]: 91 % of control
- T/C [2]: 94 % of control
- T/C [3]: 91 % of control

Compound: O=C1c2ccccc2C(=O)N1CN1C(=O)c2ccccc2C1=O
- T/C [4]: 93 % of control
- T/C [5]: 92 % of control
- T/C [6]: 93 % of control

Compound: CCOc1ccc(/C=C(/C#N)C(N)=O)cc1
- T/C (endpoint: mean survival time, dose: 50.0 mg/kg/injection, schedule: Q04DX003 (ip), vehicle: saline with Tween-80): 97 % of control
- T/C [7]: 94 % of control
- T/C [8]: 92 % of control

Compound: CCOC(=O)/N=C/N(C)C
- T/C [9]: 100 % of control
- T/C [10]: 109 % of control
- T/C [11]: 103 % of control
- T/C (endpoint: median survival time, dose: 25.0 mg/kg/injection, schedule: Q04DX003 (ip), vehicle: saline with Tween-80): 100 % of control
- T/C (endpoint: median survival time, dose: 50.0 mg/kg/injection, schedule: Q04DX003 (ip), vehicle: saline with Tween-80): 100 % of control
- T/C (endpoint: median survival time, dose: 100.0 mg/kg/injection, schedule: Q04DX003 (ip), vehicle: saline with Tween-80): 100 % of control

Compound: CC(=O)O/C=C1\CC2C3CC=C4CC(OC(C)=O)CCC4(C)C3CCC2(C)C1=O (stereo not drawn)
- T/C (endpoint: mean survival time, dose: 25.0 mg/kg/injection, schedule: Q01DX001 (ip), vehicle: saline with Tween-80): 100 % of control
- T/C (endpoint: mean survival time, dose: 50.0 mg/kg/injection, schedule: Q01DX001 (ip), vehicle: saline with Tween-80): 95 % of control
- T/C (endpoint: mean survival time, dose: 100.0 mg/kg/injection, schedule: Q01DX001 (ip), vehicle: saline with Tween-80): 95 % of control

Compound: NC(=O)/C=C/C(=O)c1c(Cl)cccc1Cl
- T/C [12]: 98 % of control
- T/C (endpoint: mean survival time, dose: 0.79 mg/kg/injection, schedule: Q01DX009 (ip), vehicle: saline with Tween-80): 97 % of control
- T/C (endpoint: mean survival time, dose: 1.56 mg/kg/injection, schedule: Q01DX009 (ip), vehicle: saline with Tween-80): 95 % of control and 97 % of control
- T/C (endpoint: mean survival time, dose: 3.12 mg/kg/injection, schedule: Q01DX009 (ip), vehicle: saline with Tween-80): 91 % of control and 104 % of control
- T/C (endpoint: mean survival time, dose: 6.25 mg/kg/injection, schedule: Q01DX009 (ip), vehicle: saline with Tween-80): 97 % of control and 101 % of control
- T/C (endpoint: mean survival time, dose: 12.5 mg/kg/injection, schedule: Q01DX009 (ip), vehicle: saline with Tween-80): 98 % of control and 100 % of control

Compound: CCCCC(C(=O)OCC)C1=NC(C)(C)CC(C)O1 (stereo not drawn)
- T/C [1]: 98 % of control
- T/C (endpoint: mean survival time, dose: 100.0 mg/kg/injection, schedule: Q04DX003 (ip), vehicle: acetone): 101 % of control
- T/C [2]: 97 % of control
- T/C (endpoint: mean survival time, dose: 200.0 mg/kg/injection, schedule: Q04DX003 (ip), vehicle: acetone): 90 % of control
- T/C [3]: 97 % of control
- T/C (endpoint: mean survival time, dose: 400.0 mg/kg/injection, schedule: Q04DX003 (ip), vehicle: acetone): 91 % of control

Compound: OC1(c2ccccc2)C(N2CCOCC2)=C(c2ccccc2)c2ccccc21 (stereo not drawn)
- T/C [7]: 105 % of control
- T/C [8]: 100 % of control
- T/C [13]: 95 % of control

Compound: O=C1C(c2ccccc2)=C(c2ccccc2)CC1O (stereo not drawn)
- T/C [7]: 103 % of control
- T/C [8]: 91 % of control
- T/C [13]: 103 % of control

Compound: CCCCCCCCCCCCN1C(C)=CS/C1=C\C=C\c1scc(C)[n+]1CCCCCCCCCCCC
- T/C [12]: 123 % of control

Compound: Nc1nc(N)c2nc(CCSc3ccc(C(=O)NC(CCC(=O)O)C(=O)O)cc3)cnc2n1 (stereo not drawn)
- T/C (endpoint: mean survival time, dose: 0.38 mg/kg/injection, schedule: Q01DX009 (ip), vehicle: sodium bicarbonate): 96 % of control
- T/C (endpoint: mean survival time, dose: 0.75 mg/kg/injection, schedule: Q01DX009 (ip), vehicle: sodium bicarbonate): 100 % of control
- T/C (endpoint: mean survival time, dose: 1.5 mg/kg/injection, schedule: Q01DX009 (ip), vehicle: sodium bicarbonate): 104 % of control
- T/C (endpoint: mean survival time, dose: 3.0 mg/kg/injection, schedule: Q01DX009 (ip), vehicle: sodium bicarbonate): 95 % of control
- T/C (endpoint: mean survival time, dose: 6.0 mg/kg/injection, schedule: Q01DX009 (ip), vehicle: sodium bicarbonate): 91 % of control
- T/C (endpoint: mean survival time, dose: 12.0 mg/kg/injection, schedule: Q01DX009 (ip), vehicle: sodium bicarbonate): 93 % of control
- T/C (endpoint: mean survival time, dose: 24.0 mg/kg/injection, schedule: Q01DX009 (ip), vehicle: sodium bicarbonate): 102 % of control
- T/C (endpoint: mean survival time, dose: 48.0 mg/kg/injection, schedule: Q01DX009 (ip), vehicle: sodium bicarbonate): 106 % of control

Compound: CCC1(OC(=O)CNC)C(=O)OCc2c1cc1n(c2=O)Cc2cc3ccccc3nc2-1 (stereo not drawn)
- T/C (endpoint: median survival time, dose: 7.5 mg/kg/injection, schedule: Q04DX002 (ip), vehicle: saline): 124 % of control
- T/C (endpoint: median survival time, dose: 15.0 mg/kg/injection, schedule: Q04DX002 (ip), vehicle: saline): 160 % of control and 162 % of control
- T/C (endpoint: median survival time, dose: 30.0 mg/kg/injection, schedule: Q04DX002 (ip), vehicle: saline): 239 % of control
- T/C (endpoint: median survival time, dose: 60.0 mg/kg/injection, schedule: Q04DX002 (ip), vehicle: saline): 108 % of control

Compound: O=C1CCCC(c2ccccc2)c2ccccc21 (stereo not drawn)
- T/C [9]: 97 % of control
- T/C [10]: 97 % of control
- T/C [11]: 97 % of control

Compound: O=C(NCCBr)Nc1ccccc1
- T/C (endpoint: mean survival time, dose: 12.5 mg/kg/injection, schedule: Q04DX002 (ip), vehicle: Klucel (hydroxypropylcellulose) (HPC)): 92 % of control
- T/C (endpoint: mean survival time, dose: 25.0 mg/kg/injection, schedule: Q04DX002 (ip), vehicle: Klucel (hydroxypropylcellulose) (HPC)): 92 % of control
- T/C (endpoint: mean survival time, dose: 50.0 mg/kg/injection, schedule: Q04DX002 (ip), vehicle: Klucel (hydroxypropylcellulose) (HPC)): 96 % of control

Compound: N=C1c2ccccc2-c2ccccc21
- T/C [4]: 101 % of control
- T/C [5]: 96 % of control

Compound: CC(=O)NC(CO)C1C(CO)OC(n2ccc(=O)[nH]c2=O)C1O (stereo not drawn)
- T/C (endpoint: mean survival time, dose: 6.25 mg/kg/injection, schedule: Q01DX005 (ip), vehicle: water): 101 % of control
- T/C (endpoint: mean survival time, dose: 12.5 mg/kg/injection, schedule: Q01DX005 (ip), vehicle: water): 101 % of control
- T/C (endpoint: mean survival time, dose: 25.0 mg/kg/injection, schedule: Q01DX005 (ip), vehicle: water): 98 % of control
- T/C (endpoint: mean survival time, dose: 50.0 mg/kg/injection, schedule: Q01DX005 (ip), vehicle: water): 103 % of control
- T/C (endpoint: mean survival time, dose: 100.0 mg/kg/injection, schedule: Q01DX005 (ip), vehicle: water): 96 % of control

Compound: CCC(=O)c1cc2c(c3c1CCCC3)CCCC2
- T/C [14]: 104 % of control
- T/C [15]: 98 % of control
- T/C [16]: 104 % of control

Compound: O=C(C[n+]1cccc(C(=O)NCc2ccccc2)c1)NCc1ccccc1
- T/C (endpoint: mean survival time, dose: 25.0 mg/kg/injection, schedule: Q04DX003 (ip), vehicle: saline): 103 % of control
- T/C (endpoint: mean survival time, dose: 50.0 mg/kg/injection, schedule: Q04DX003 (ip), vehicle: saline): 101 % of control
- T/C (endpoint: mean survival time, dose: 100.0 mg/kg/injection, schedule: Q04DX003 (ip), vehicle: saline): 98 % of control

Compound: CCOc1nnc(-c2ccccc2)o1
- T/C (endpoint: mean survival time, dose: 12.5 mg/kg/injection, schedule: Q01DX009 (ip), vehicle: other): 92 % of control
- T/C [14]: 96 % of control
- T/C [15]: 97 % of control
- T/C [16]: 100 % of control
- T/C (endpoint: mean survival time, dose: 200.0 mg/kg/injection, schedule: Q01DX009 (ip), vehicle: other): 97 % of control

Compound: O=C(O)CSCC(=O)c1ccccc1
- T/C [5]: 98 % of control
- T/C [7]: 94 % of control
- T/C [6]: 100 % of control
- T/C [8]: 98 % of control
- T/C (endpoint: mean survival time, dose: 400.0 mg/kg/injection, schedule: Q01DX009 (ip), vehicle: saline with Tween-80): 98 % of control
- T/C [13]: 102 % of control

Compound: CC(C)c1cc(C(C)C)c(S(=O)(=O)OCC2OC(OC3(COS(=O)(=O)c4c(C(C)C)cc(C(C)C)cc4C(C)C)OC(COS(=O)(=O)c4c(C(C)C)cc(C(C)C)cc4C(C)C)C(O)C3O)C(O)C(O)C2O)c(C(C)C)c1 (stereo not drawn)
- T/C [4]: 98 % of control
- T/C [5]: 95 % of control
- T/C [6]: 102 % of control

Compound: O=C(O)c1cc(-c2ccc(Cl)c(Cl)c2)nc2c(Cl)cc(Cl)cc12
- T/C [9]: 100 % of control
- T/C [10]: 100 % of control
- T/C [11]: 97 % of control

Compound: CN(N=O)c1ccc(CC2CCc3ccccc32)cc1 (stereo not drawn)
- T/C (endpoint: mean survival time, dose: 100.0 mg/kg/injection, schedule: Q01DX009 (ip), vehicle: Klucel (hydroxypropylcellulose) (HPC)): 93 % of control
- T/C (endpoint: mean survival time, dose: 200.0 mg/kg/injection, schedule: Q01DX009 (ip), vehicle: Klucel (hydroxypropylcellulose) (HPC)): 98 % of control
- T/C (endpoint: mean survival time, dose: 400.0 mg/kg/injection, schedule: Q01DX009 (ip), vehicle: Klucel (hydroxypropylcellulose) (HPC)): 101 % of control
